The kinase profiling compilation of Christmann-Franck et al. (2016)

Experiments:
Test in all cases: radiometric filter-binding kinase assay, Kinase HotSpot
Conditions in all cases: compound 0.5 µM; ATP 10 µM
CAMK2A (human) = CAMK2A (human) (UniProt Q9UQM7)
FES (human) = FES (human) (UniProt P07332)
MAPK12 (human) = MAPK12 (human) (UniProt P53778)
MAPKAPK3 (human) = MAPKAPK3 (human) (UniProt Q16644)
MAPK8 (human) = MAPK8 (human) (UniProt P45983)
GRK5 (human) = GRK5 (human) (UniProt P34947)
INSR (human) = INSR (human) (UniProt P06213)
PKN1 (human) = PKN1 (human) (UniProt Q16512)
PKN1 (human), sequence (Q16512 whole entry, looked up): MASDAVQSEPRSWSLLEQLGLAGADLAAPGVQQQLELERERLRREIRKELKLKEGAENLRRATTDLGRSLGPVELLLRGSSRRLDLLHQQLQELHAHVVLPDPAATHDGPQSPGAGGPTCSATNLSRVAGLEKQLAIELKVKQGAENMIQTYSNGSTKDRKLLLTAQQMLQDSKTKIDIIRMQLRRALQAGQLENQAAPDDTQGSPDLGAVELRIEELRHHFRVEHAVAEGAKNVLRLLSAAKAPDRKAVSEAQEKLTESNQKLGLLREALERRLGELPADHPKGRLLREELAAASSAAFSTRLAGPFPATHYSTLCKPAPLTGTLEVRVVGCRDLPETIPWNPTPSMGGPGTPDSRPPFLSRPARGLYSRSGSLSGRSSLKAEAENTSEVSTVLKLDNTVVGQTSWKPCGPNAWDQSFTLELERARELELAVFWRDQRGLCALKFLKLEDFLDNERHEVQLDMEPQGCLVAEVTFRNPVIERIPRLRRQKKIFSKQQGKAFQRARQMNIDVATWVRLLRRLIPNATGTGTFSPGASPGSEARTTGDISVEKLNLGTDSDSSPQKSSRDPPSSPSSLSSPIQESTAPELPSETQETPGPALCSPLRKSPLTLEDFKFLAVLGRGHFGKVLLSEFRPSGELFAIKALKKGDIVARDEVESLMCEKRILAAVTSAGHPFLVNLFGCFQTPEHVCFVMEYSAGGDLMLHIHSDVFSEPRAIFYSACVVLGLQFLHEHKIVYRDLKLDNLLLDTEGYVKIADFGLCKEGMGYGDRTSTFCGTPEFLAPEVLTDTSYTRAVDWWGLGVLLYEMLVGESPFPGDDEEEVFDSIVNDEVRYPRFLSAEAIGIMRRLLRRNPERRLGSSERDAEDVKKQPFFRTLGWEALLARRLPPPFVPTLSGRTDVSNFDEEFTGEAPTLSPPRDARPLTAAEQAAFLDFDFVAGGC

ZAP70 (human) = ZAP70 (human) (UniProt P43403)
EPHA5 (human) = EPHA5 (human) (UniProt P54756)
INSRR (human) = INSRR (human) (UniProt P14616)
FGFR1 (human) = FGFR1 (human) (UniProt P11362)
[1] = molecular target: TYK2 JH1 catalytic (human) (UniProt P29597)
CAMK2B (human) = CAMK2B (human) (UniProt Q13554)
EPHB1 (human) = EPHB1 (human) (UniProt P54762)
FGFR4 (human) = FGFR4 (human) (UniProt P22455)
MAP3K8 (human) = MAP3K8 (human) (UniProt P41279)
TAOK1 (human) = TAOK1 (human) (UniProt Q7L7X3)
TAOK1 (human), sequence (Q7L7X3 whole entry, looked up): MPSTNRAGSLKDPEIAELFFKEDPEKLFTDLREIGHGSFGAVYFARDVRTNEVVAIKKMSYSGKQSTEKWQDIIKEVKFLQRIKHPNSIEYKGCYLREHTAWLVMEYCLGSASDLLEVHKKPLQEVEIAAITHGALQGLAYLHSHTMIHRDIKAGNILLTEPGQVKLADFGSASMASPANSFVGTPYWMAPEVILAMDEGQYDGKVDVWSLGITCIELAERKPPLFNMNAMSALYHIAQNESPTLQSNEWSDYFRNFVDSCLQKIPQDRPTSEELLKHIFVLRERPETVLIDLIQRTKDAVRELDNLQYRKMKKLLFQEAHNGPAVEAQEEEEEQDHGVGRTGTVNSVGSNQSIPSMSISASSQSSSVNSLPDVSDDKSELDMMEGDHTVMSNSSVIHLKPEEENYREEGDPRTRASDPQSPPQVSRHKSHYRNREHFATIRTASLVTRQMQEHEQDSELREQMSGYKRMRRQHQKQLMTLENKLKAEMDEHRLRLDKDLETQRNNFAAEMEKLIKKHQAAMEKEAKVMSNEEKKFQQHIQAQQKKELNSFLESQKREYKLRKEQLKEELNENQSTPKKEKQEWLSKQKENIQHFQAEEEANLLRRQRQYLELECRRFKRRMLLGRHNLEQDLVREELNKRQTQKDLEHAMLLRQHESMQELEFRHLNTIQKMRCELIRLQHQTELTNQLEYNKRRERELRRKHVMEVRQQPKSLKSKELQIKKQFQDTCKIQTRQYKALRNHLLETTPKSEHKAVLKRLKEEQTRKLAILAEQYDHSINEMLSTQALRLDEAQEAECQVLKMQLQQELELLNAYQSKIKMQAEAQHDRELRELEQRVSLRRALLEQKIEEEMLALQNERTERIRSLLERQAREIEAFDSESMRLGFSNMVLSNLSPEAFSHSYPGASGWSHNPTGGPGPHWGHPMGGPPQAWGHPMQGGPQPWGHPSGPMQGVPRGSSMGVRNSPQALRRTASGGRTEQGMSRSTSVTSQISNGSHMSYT

TAOK3 (human) = TAOK3 (human) (UniProt Q9H2K8)
CSNK2A1 (human) = CSNK2A1 (human) (UniProt P68400)
RPS6KA4 KD2 (human) = RPS6KA4 KD2 (human) (UniProt O75676)
RPS6KA4 KD2 (human), sequence (O75676 whole entry, looked up): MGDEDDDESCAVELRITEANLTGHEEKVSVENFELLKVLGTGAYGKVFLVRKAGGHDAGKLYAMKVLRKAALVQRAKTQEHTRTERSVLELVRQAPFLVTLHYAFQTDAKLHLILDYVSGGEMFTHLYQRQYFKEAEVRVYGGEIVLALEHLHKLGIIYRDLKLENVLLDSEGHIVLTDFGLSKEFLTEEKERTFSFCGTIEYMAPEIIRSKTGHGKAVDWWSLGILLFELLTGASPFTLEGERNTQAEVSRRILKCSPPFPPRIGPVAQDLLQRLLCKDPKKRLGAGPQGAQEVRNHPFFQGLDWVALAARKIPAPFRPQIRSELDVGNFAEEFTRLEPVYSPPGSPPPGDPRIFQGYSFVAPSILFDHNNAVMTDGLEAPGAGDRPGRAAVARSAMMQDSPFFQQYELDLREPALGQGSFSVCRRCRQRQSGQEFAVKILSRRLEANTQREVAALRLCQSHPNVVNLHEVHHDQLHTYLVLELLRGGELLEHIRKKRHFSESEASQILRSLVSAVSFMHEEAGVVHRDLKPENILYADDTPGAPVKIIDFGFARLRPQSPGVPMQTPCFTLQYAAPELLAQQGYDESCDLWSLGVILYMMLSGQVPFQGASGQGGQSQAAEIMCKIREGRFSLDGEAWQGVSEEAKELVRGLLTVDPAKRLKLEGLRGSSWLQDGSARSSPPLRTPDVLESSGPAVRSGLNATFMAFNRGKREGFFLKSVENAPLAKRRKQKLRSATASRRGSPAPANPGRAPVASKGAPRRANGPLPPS

CAMK1 (human) = CAMK1 (human) (UniProt Q14012)
CAMK1D (human) = CAMK1D (human) (UniProt Q8IU85)
CAMK1D (human), sequence (Q8IU85 whole entry, looked up): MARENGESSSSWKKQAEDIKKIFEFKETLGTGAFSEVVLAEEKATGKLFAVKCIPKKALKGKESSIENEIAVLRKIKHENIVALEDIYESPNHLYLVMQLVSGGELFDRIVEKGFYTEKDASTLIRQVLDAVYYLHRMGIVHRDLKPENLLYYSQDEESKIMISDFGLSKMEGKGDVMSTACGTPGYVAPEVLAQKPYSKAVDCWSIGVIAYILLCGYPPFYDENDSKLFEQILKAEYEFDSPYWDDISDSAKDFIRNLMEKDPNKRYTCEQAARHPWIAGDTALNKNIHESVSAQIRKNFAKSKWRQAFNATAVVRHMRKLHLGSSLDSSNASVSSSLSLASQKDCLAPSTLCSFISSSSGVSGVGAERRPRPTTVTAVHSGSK

IGF1R (human) = IGF1R (human) (UniProt P08069)
CSNK1G2 (human) = CSNK1G2 (human) (UniProt P78368)
TNK2 (human) = TNK2 (human) (UniProt Q07912)
WNK3 (human) = WNK3 (human) (UniProt Q9BYP7)
PIM3 (human) = PIM3 (human) (UniProt Q86V86)
PRKCG (human) = PRKCG (human) (UniProt P05129)
EPHA7 (human) = EPHA7 (human) (UniProt Q15375)
SRPK3 (human) = SRPK3 (human) (UniProt Q9UPE1)
CDK2 CCNA2 (human) = CDK2 CCNA2 (human) (UniProt P24941+P20248)
PAK2 (human) = PAK2 (human) (UniProt Q13177)
MATK (human) = MATK (human) (UniProt P42679)
MATK (human), sequence (P42679 whole entry, looked up): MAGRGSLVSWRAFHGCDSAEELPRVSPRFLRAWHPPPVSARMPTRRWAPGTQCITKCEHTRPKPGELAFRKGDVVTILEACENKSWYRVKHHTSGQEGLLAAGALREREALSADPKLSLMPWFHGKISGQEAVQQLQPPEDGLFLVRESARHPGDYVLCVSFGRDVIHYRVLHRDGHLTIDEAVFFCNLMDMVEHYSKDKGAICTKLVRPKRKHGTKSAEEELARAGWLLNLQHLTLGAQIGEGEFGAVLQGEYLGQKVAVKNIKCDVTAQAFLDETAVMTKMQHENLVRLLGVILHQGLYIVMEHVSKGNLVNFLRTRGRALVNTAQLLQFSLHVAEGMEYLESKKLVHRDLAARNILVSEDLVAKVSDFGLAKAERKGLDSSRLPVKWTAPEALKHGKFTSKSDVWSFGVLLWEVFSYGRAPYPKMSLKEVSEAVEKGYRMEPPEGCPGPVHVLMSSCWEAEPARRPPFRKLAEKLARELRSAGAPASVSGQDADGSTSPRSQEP

CSNK1E (human) = CSNK1E (human) (UniProt P49674)
STK11 (human) = STK11 (human) (UniProt Q15831)
CDC42BPA (human) = CDC42BPA (human) (UniProt Q5VT25)
PLK2 (human) = PLK2 (human) (UniProt Q9NYY3)
MAP3K10 (human) = MAP3K10 (human) (UniProt Q02779)
EPHB4 (human) = EPHB4 (human) (UniProt P54760)
AKT1 (human) = AKT1 (human) (UniProt P31749)
CDK1 CCNB1 (human) = CDK1 CCNB1 (human) (UniProt P06493+P14635)

GRK5 (human), sequence (P34947 whole entry, looked up): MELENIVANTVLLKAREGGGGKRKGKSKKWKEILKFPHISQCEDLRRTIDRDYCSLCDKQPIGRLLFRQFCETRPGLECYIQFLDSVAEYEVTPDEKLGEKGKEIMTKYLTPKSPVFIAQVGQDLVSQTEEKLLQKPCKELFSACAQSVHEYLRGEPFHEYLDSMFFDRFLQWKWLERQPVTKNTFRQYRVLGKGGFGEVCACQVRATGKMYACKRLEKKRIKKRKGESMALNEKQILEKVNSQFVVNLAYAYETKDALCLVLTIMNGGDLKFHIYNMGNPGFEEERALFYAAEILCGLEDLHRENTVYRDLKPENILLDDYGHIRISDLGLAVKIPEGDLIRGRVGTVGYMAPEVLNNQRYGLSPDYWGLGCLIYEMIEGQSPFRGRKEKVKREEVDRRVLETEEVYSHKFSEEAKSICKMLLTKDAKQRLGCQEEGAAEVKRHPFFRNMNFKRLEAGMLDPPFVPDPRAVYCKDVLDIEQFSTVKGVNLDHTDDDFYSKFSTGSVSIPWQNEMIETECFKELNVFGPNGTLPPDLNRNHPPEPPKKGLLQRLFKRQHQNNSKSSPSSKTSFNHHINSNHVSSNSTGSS
MAPKAPK3 (human), sequence (Q16644 whole entry, looked up): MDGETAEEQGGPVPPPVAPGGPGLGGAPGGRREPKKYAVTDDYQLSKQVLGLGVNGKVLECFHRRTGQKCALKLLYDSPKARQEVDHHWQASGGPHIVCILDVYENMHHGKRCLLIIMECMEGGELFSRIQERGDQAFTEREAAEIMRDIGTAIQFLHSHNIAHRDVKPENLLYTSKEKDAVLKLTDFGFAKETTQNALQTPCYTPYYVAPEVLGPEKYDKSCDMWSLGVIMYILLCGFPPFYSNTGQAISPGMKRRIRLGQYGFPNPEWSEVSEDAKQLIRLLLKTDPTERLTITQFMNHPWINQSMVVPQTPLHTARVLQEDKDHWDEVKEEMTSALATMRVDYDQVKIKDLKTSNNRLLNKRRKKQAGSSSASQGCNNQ

`O=c1c(-c2ccc(F)cc2)c(-c2ccncc2)[nH]n1-c1ccc(Cl)cc1` showed a residual activity (CAMK2A (human)) of 86.9%, a residual activity (FES (human)) of 92.3% and a residual activity (MAPK12 (human)) of 85.2%. For the same compound, the residual activity (MAPKAPK3 (human)) was 101%, the residual activity (MAPK8 (human)) was 90.2% and the residual activity (GRK5 (human)) was 90.3%. The residual activity (INSR (human)) was 110%, the residual activity (PKN1 (human)) was 92.4% and the residual activity (ZAP70 (human)) was 108%. The residual activity (EPHA5 (human)) was 106%, the residual activity (INSRR (human)) was 95.4% and the residual activity (FGFR1 (human)) was 93.7%. The residual activity [1] was 90.9%, the residual activity (CAMK2B (human)) was 93.7% and the residual activity (EPHB1 (human)) was 90.5%. The residual activity (FGFR4 (human)) was 92.4%, the residual activity (MAP3K8 (human)) was 87.1% and the residual activity (TAOK1 (human)) was 102%. The residual activity (TAOK3 (human)) was 89.5%, the residual activity (CSNK2A1 (human)) was 95.3% and the residual activity (RPS6KA4 KD2 (human)) was 103%. It also gave a residual activity (CAMK1 (human)) of 94.4%, a residual activity (CAMK1D (human)) of 72.2% and a residual activity (IGF1R (human)) of 92.8%. It also gave a residual activity (CSNK1G2 (human)) of 93.8%, a residual activity (TNK2 (human)) of 91.2% and a residual activity (WNK3 (human)) of 93.6%. It also gave a residual activity (PIM3 (human)) of 89.9%, a residual activity (PRKCG (human)) of 101% and a residual activity (EPHA7 (human)) of 98.5%. For the same compound, the residual activity (SRPK3 (human)) was 92.2%, the residual activity (CDK2 CCNA2 (human)) was 89.9% and the residual activity (PAK2 (human)) was 102%. For the same compound, the residual activity (MATK (human)) was 86%, the residual activity (CSNK1E (human)) was 35% and the residual activity (STK11 (human)) was 98.8%. It also gave a residual activity (CDC42BPA (human)) of 98%, a residual activity (PLK2 (human)) of 92.5% and a residual activity (MAP3K10 (human)) of 88.1%. The residual activity (EPHB4 (human)) was 97.2% and the residual activity (AKT1 (human)) was 96.4%.

Work on `N/C(=N\N=C/c1ccc(-c2cccc([N+](=O)[O-])c2)o1)N[N+](=O)[O-]` yielded a residual activity (CAMK2A (human)) of 100%, a residual activity (FES (human)) of 101% and a residual activity (MAPK12 (human)) of 93.4%. It also gave a residual activity (MAPKAPK3 (human)) of 95.4%, a residual activity (MAPK8 (human)) of 91.2% and a residual activity (GRK5 (human)) of 123%. It also gave a residual activity (INSR (human)) of 92%, a residual activity (PKN1 (human)) of 93.9% and a residual activity (ZAP70 (human)) of 93.1%. It also gave a residual activity (EPHA5 (human)) of 100%, a residual activity (INSRR (human)) of 99.2% and a residual activity (FGFR1 (human)) of 97.6%. For the same compound, the residual activity [1] was 110%, the residual activity (CAMK2B (human)) was 100% and the residual activity (EPHB1 (human)) was 107%. For the same compound, the residual activity (FGFR4 (human)) was 106%, the residual activity (MAP3K8 (human)) was 98.8% and the residual activity (TAOK1 (human)) was 89.6%. The residual activity (TAOK3 (human)) was 99.5%, the residual activity (CSNK2A1 (human)) was 91% and the residual activity (RPS6KA4 KD2 (human)) was 98.9%. The residual activity (CAMK1 (human)) was 106%, the residual activity (CAMK1D (human)) was 96.4% and the residual activity (CDK1 CCNB1 (human)) was 87.9%. For the same compound, the residual activity (IGF1R (human)) was 96.4%, the residual activity (CSNK1G2 (human)) was 101% and the residual activity (TNK2 (human)) was 99.9%. The residual activity (WNK3 (human)) was 96.6%, the residual activity (PIM3 (human)) was 114% and the residual activity (PRKCG (human)) was 96.4%. It also gave a residual activity (EPHA7 (human)) of 97.9%, a residual activity (SRPK3 (human)) of 100% and a residual activity (PAK2 (human)) of 103%. The residual activity (MATK (human)) was 94.3%, the residual activity (CSNK1E (human)) was 91% and the residual activity (STK11 (human)) was 98.7%. For the same compound, the residual activity (CDC42BPA (human)) was 87.3%, the residual activity (PLK2 (human)) was 107% and the residual activity (MAP3K10 (human)) was 101%. It also gave a residual activity (EPHB4 (human)) of 91.6% and a residual activity (AKT1 (human)) of 99.7%.
